Laboratory results published in US20130131179A1, “IRON METABOLISM-IMPROVING AGENT” (Ajinomoto Co., Inc., priority 2006, published 2013).
Counter-ions that a name gives are not always drawn.

Experiments:
[1] = system: bilateral-kidney-extirpated rats; assay: Citric acid administration in a dialysis session in bilateral-kidney-extirpated rats
[2] = as above; details: male, CD(SD), rat, plasma, intravenous
[3] = system: bilaterally nephrectomized rats; assay: Citric acid administration in bilaterally nephrectomized rats; details: third group, 4.5% (w/v) sodium citrate solution by CVC 0.25 mL/h for 4 hours
[4] = as above; details: male, CD(SD), rat, plasma, intravenous, 0.25 mL/h of 4.5% (w/v) sodium citrate solution for 4 h

concentration at 4 h [2]: 265 µg/mL
concentration at 4 h [4]: 211 ± 132 µg/mL
SMILES: O=C(O)CC(O)(CC(=O)O)C(=O)O [citric acid, sodium citrate]
difference of plasma iron concentrations relative to that of second group (saline) ([1]; third group versus second group, during 4 h dialysis): about 4 times
difference of plasma iron concentrations between before and after administration ([1]; third group, 4.5% (w/v) sodium citrate solution by CVC 1.0 mL/h during 4 h dialysis with commercial dialysate): 81 µg/dL
difference of plasma iron concentrations between before and after administration [3]: 14 to 18 µg/dL
